Test results reported in ChEMBL document CHEMBL3217700, “Synthesis and SAR studies of benzimidazole derivatives as melanin concentrating hormone receptor 1 (MCHR1) antagonists: Focus to detune hERG inhibition” (Medchemcomm, 2011).

How the values were obtained:
[1] = molecular target: T1, Melanin-concentrating hormone receptor 1 (Homo sapiens, UniProt Q99705); experiment: Antagonist activity at MCHR1 (unknown origin) assessed as IP3 levels by cell-based functional assay
[2] = molecular target: T1, Melanin-concentrating hormone receptor 1; experiment: Displacement of [125I]MCH from human recombinant MCHR1 expressed CHO-K1 cell membrane by SPA-YSI assay; format: cell membranes
hERG (KCNH2) = hERG (KCNH2) (Homo sapiens, UniProt Q12809); experiment: Inhibition of human ERG expressed in HEK293 cells at 1 uM after 5 mins by patch clamp assay; format: cell-based; conditions: HEK293 cells that express hERG
Sequence of hERG (KCNH2) (Q12809 whole entry): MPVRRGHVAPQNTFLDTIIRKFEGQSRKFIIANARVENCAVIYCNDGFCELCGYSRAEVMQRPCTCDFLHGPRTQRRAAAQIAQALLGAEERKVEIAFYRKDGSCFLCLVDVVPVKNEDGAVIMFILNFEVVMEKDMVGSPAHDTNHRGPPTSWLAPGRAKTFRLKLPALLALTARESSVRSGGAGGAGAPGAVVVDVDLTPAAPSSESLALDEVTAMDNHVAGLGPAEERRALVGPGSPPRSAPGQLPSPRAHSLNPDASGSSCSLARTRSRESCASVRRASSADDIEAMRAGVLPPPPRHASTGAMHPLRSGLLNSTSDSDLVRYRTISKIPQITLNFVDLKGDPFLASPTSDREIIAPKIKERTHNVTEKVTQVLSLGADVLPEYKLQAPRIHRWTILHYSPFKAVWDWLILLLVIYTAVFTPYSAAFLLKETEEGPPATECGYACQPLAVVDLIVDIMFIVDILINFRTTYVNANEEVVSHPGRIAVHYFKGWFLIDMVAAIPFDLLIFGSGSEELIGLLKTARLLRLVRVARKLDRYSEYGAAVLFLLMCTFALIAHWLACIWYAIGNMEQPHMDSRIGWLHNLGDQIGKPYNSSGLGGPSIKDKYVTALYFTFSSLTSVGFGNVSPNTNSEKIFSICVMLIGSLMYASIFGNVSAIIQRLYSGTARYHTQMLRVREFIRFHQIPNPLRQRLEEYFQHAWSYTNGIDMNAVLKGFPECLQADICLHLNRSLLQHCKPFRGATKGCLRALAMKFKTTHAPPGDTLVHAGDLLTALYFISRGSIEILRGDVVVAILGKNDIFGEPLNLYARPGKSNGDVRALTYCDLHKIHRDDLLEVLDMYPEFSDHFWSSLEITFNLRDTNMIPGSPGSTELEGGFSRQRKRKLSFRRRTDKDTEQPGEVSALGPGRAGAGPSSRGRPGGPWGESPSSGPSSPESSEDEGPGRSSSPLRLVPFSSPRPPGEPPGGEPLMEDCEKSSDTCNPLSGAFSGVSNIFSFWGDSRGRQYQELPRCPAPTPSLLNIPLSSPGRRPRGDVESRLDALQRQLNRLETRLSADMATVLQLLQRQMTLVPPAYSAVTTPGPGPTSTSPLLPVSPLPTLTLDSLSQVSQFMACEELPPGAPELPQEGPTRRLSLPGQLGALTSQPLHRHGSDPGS

Homo sapiens = organism: Homo sapiens; experiment: Selectivity ratio of IC50 for human ERG to IC50 for MCHR1 (unknown origin) assessed as IP3 levels by cell-based functional assay
[3] = molecular target: Voltage-gated inwardly rectifying potassium channel KCNH2 (Homo sapiens, UniProt Q12809); experiment: Inhibition of human ERG expressed in HEK293 cells after 5 mins by patch clamp assay; format: cell-based
Sequence of Voltage-gated inwardly rectifying potassium channel KCNH2 (Q12809 whole entry): as above

T1 sequence (Q99705 whole entry): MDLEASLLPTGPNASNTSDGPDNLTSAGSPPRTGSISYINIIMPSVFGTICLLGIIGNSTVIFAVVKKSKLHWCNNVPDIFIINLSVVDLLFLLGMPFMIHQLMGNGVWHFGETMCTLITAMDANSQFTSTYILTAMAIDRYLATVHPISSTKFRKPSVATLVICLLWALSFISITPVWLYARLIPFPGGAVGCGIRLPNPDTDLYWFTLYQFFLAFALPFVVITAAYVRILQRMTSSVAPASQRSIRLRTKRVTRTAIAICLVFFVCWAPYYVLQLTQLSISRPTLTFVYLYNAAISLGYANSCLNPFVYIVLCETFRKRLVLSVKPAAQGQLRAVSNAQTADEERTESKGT

Compound	IC50 [1]	IC50 [2]	inhibition at 5 min, 1 µM (hERG (KCNH2))	Ratio IC50 (Homo sapiens)	IC50 [3]
CC(=O)Nc1cccc(C2CCN(C(C)c3ccc(C(=O)c4nc5ccccc5n4-c4ccc(F)cc4)cc3)CC2)c1 (stereo unspecified)	0.259 µM	0.15 µM	–	–	–
CC(=O)Nc1cccc(C2CCN(Cc3ccc(C(=O)c4nc5ccccc5n4-c4ccc(F)cc4)cc3Cl)CC2)c1	0.336 µM	0.184 µM	–	–	–
CC(=O)Nc1cccc(C2CCN(Cc3ccc(C(=O)c4nc5ccccc5n4-c4ccc(C#N)cc4)cc3)CC2)c1	0.26 µM	0.172 µM	–	–	–
CC(=O)Nc1cccc(C2CCN(Cc3ccc(C(=O)c4nc5ccccc5n4C)cc3)CC2)c1	0.817 µM	0.289 µM	–	–	–
CC(=O)Nc1cccc(C2CCN(Cc3ccc(C(=O)c4nc5ccccc5n4C4CC4)cc3)CC2)c1	0.412 µM	0.271 µM	–	–	–
CC(=O)Nc1cccc(C2CCN(Cc3ccc(C(=O)c4nc5ccccc5n4-c4ccc(F)cc4)cc3C(F)(F)F)CC2)c1	> 10 µM	3.25 µM	–	–	–
CC(=O)Nc1cccc(C2CCN(Cc3ccc(C(=O)c4nc5ccccc5n4-c4ccc(C(F)(F)F)cc4)cc3)CC2)c1	1.37 µM	1 µM	–	–	–
CC(=O)Nc1cccc(C2CCN(CCCNc3nc4ccccc4n3-c3ccc(F)cc3)CC2)c1	–	–	–	3	–
CC(=O)Nc1cccc(C2CCN(CCCCc3nc4ccccc4n3-c3ccc(F)cc3)CC2)c1	–	–	–	10	–
CC(=O)Nc1cccc(C2CCN(Cc3ccc(C(=O)c4nc5ccccc5n4-c4ccc(F)cc4)cc3C#N)CC2)c1	0.385 µM	0.651 µM	–	–	–
CC(=O)Nc1cccc(C2CCN(Cc3ccc(C(=O)c4nc5ccccc5n4-c4ccc(Cl)cc4)cc3)CC2)c1	0.217 µM	0.034 µM	–	26	1.7 µM

The next lines start with results.

IC50 [1]	IC50 [2]	Compound	inhibition at 5 min, 1 µM (hERG (KCNH2))	Ratio IC50 (Homo sapiens)	IC50 [3]
0.066 µM	0.027 µM	CC(=O)Nc1cccc(C2CCN(Cc3ccc(C(=O)c4nc5ccccc5n4-c4ccc(F)cc4)cn3)CC2)c1	27%	–	–
0.003 µM	0.01 µM	CC(=O)Nc1cccc(C2CCN(Cc3ccc(Cc4nc5ccccc5n4-c4ccc(F)cc4)cc3C#N)CC2)c1	42%	131	–
0.059 µM	0.012 µM	CC(=O)Nc1cccc(C2CCN(Cc3ccc(C(=O)c4nc5cnccc5n4-c4ccc(F)cc4)cc3)CC2)c1	36%	–	–
0.053 µM	0.008 µM	CC(=O)Nc1cccc(C2CCN(Cc3ccc(Oc4nc5ccccc5n4-c4ccc(F)cc4)cc3)CC2)c1	80%	–	–
0.037 µM	0.011 µM	CC(=O)Nc1cccc(C2CCN(Cc3ccc(C(=O)c4nc5ccccc5n4-c4ccc(F)cc4)nc3)CC2)c1	37%	–	–
0.096 µM	0.022 µM	CC(=O)Nc1cccc(C2CCN(Cc3ccc(C(=O)c4nc(C)c(C)n4-c4ccc(F)cc4)cc3)CC2)c1	–	18	1.7 µM
0.003 µM	0.0009 µM	CC(=O)Nc1cccc(C2CCN(Cc3ccc(Cc4nc5ccccc5n4-c4ccc(F)cc4)cc3)CC2)c1	98%	–	–
0.043 µM	0.015 µM	CC(=O)Nc1cccc(C2CCN(Cc3ccc(C(=O)c4nc5c(F)cc(F)cc5n4-c4ccc(F)cc4)cc3)CC2)c1	70%	–	–
0.131 µM	0.138 µM	CC(=O)Nc1cccc(C2CCN(Cc3ccc(C(=O)c4nc5ccccc5n4C(C)C)cc3)CC2)c1	–	–	–
0.015 µM	0.011 µM	CC(=O)Nc1cccc(C2CCN(Cc3ccc(C(=O)c4nc5ccccc5n4-c4ccc(F)cc4)cc3)CC2)c1	–	–	–
0.08 µM	0.046 µM	CC(=O)Nc1cccc(C2CCN(Cc3ccc(C(=O)c4nc5ccccc5n4-c4ccc(F)cc4)cc3F)CC2)c1	–	–	–
0.053 µM	0.014 µM	CC(=O)Nc1cccc(C2CCN(Cc3ccc(C(=O)c4nc5cccnc5n4-c4ccc(F)cc4)cc3)CC2)c1	58%	–	–
0.047 µM	0.055 µM	CC(=O)Nc1cccc(C2CCN(Cc3ccc(C(=O)c4nc5ccccc5n4C4CCOCC4)cc3)CC2)c1	–	24	1.2 µM
